Results as given in patent US12534552B2, “Antibacterial polymer” (LG Chem, Ltd., priority 2020, dated 2026).

What was measured:
[1] = tested on: Proteus Mirabilis (ATCC 29906); assay: Antibacterial Test 1: bacterial growth inhibition rate by absorbance at 600 nm; assay type: cell-based; details: 0.1 g sample in 25 ml nutrient broth, 3000 CFU/ml, 37° C., 16 hours
Description: Antibacterial tests were performed on the antibacterial polymers prepared in Examples and Comparative Examples. Specifically, in the antibacterial test, the bacterial growth inhibition rate (%) was measured by the following method. In addition, the bacterial growth inhibition rate (%) of Icaridin and Menthol acrylate as single molecules was also measured by the same method and shown as Comparative Examples 2 and 3.
0.1 g of the antibacterial polymer prepared above was added to 25 ml of nutrient broth culture medium inoculated with the test bacterium Proteus Mirabilis (ATCC 29906) at 3000 CFU/ml, and then incubated in a shaking incubator (VS-37SIF, produced by Visiontech) at 37° C. for 16 hours. The absorbance at 600 nm wavelength of the cultured solution was measured using a UV-Vis Spectrophotometer (Optizen POP, produced by K Lab). In addition, in a pure culture medium containing no antibacterial polymer, a solution prepared by culturing Proteus Mirabilis (ATCC 29906) at 37° C. for 16 hours was prepared as a control group, and the absorbance at a 600 nm wavelength was measured by the same manner as above. Using the measurement result, the bacterial growth inhibition rate (%) of Proteus Mirabilis (ATCC 29906) was calculated according to Equation 1 below, and the results are shown in Table 1 below. […]

[2] = Comparison of thermal decomposition behavior by TGA of PMMA blends; assay type: physicochemical; details: TGA step 4, 50° C. to 600° C., 10° C./min, nitrogen; 40 parts by weight in 100 parts PMMA
Description: Poly(Methyl methacrylate) (TCI Chemical, CAS RN: 9011-14-7) was put into a Mixed Torque Rheometer (HAPRO), and then the temperature was raised to 160° C. and the mixture was mixed for 5 minutes. PIA-2 and icaridin were added in an amount of 40 parts by weight based on 100 parts by weight of poly(methyl methacrylate), respectively, mixed at a temperature of 160° C. for 30 minutes, and then cooled to room temperature to obtain a sample.
In order to confirm the thermal decomposition behavior of the prepared sample, experiments were performed as shown in Table 2 below using TGA (Thermogravimetric Analyzer, TA Instrument, DISCOVERY TGA 550 W/MFC & AUTO).

E. Coli = assay: Antibacterial Test 2: bacterial reduction rate, ASTM E 2149 test method; assay type: cell-based, Escherichia coli; details: 0.2 g sample, 10 mL PBS with E. Coli, 37° C., colony count; for 1 hour-bacterial reduction rate: 1 hour-contact; for 24 hour-bacterial reduction rate: 24 hour-contact
Description: Antibacterial tests were performed on the antibacterial polymers prepared in Examples and Comparative Examples. Specifically, based on the ASTM E 2149 antibacterial test method, the bacterial reduction rate (%) was measured by the following method. In addition, the bacterial reduction rates (%) of Icaridin and Menthol acrylate as single molecules was also measured by the same method and shown as Comparative Examples 2 and 3.
The sample (0.2 g) was placed in a 50 mL conical tube, to which 1× PBS (10 mL) inoculated with E. Coli (1.5×10^5 CFU/mL) was added, and cultured for 1 hour and 24 hours in a shaking incubator at 37° C., so as to allow the bacteria and the material to come into sufficient contact with each other. In order to check the colony of E. coli in the cultured sample, the sequentially diluted solution was spread on a TSA Agar plate, and then cultured for 16 hours so as to form colonies in an incubator at 30° C. The degree of bacterial culture was grasped from the number of colonies formed, and the antibacterial performance was compared.
In the above equation, Cs is the number of microorganisms (CFU/ml) in the experimental group, which can be confirmed as the number of colonies formed on the TSA Agar plate, and C0 is the number of microorganisms in the control group, which means the number of E. Coli in PBS to which the sample was not added.

SMILES | Bacterial growth inhibition rate [1] [%] | Thermal decomposition behavior / heat resistance [2] | 1 hour-bacterial reduction rate (E. Coli) [%] | 24 hour-bacterial reduction rate (E. Coli) [%]
CCC(C)OC(=O)N1CCCCC1CCO (stereo not shown) [compound 2, Icaridin] | 11.24 | proceeds decomposition from a lower temperature than that of PIA-2 | 3.17 | 13.89
C=CC(=O)OC1CC(C)CCC1C(C)C (stereo not shown) [compound 3, Menthol acrylate] | 0.2 | – | 0 | 0
